Reference: ChEMBL document CHEMBL4834452, “Discovery of a novel series of substituted quinolines acting as anticancer agents and selective EGFR blocker: Molecular docking study” (Bioorg Med Chem Lett, 2021)

What was measured:
HepG2 = assay: Anticancer activity against human HepG2 cells assessed as cell growth inhibition measured by MTT assay; type: functional, cell-based
PC-3 = assay: Anticancer activity against human PC-3 cells assessed as cell growth inhibition measured by MTT assay; type: functional, cell-based
[1] = target: Epidermal growth factor receptor (Homo sapiens, UniProt P00533); assay: Inhibition of recombinant wild type EGFR-TK (unknown origin) by ELISA
MCF7 = assay: Anticancer activity against human MCF7 cells assessed as cell growth inhibition measured by MTT assay; type: functional, cell-based
HCT-116 = assay: Anticancer activity against human HCT-116 cells assessed as cell growth inhibition measured by MTT assay; type: functional, cell-based

Chain of Epidermal growth factor receptor (P00533 whole entry): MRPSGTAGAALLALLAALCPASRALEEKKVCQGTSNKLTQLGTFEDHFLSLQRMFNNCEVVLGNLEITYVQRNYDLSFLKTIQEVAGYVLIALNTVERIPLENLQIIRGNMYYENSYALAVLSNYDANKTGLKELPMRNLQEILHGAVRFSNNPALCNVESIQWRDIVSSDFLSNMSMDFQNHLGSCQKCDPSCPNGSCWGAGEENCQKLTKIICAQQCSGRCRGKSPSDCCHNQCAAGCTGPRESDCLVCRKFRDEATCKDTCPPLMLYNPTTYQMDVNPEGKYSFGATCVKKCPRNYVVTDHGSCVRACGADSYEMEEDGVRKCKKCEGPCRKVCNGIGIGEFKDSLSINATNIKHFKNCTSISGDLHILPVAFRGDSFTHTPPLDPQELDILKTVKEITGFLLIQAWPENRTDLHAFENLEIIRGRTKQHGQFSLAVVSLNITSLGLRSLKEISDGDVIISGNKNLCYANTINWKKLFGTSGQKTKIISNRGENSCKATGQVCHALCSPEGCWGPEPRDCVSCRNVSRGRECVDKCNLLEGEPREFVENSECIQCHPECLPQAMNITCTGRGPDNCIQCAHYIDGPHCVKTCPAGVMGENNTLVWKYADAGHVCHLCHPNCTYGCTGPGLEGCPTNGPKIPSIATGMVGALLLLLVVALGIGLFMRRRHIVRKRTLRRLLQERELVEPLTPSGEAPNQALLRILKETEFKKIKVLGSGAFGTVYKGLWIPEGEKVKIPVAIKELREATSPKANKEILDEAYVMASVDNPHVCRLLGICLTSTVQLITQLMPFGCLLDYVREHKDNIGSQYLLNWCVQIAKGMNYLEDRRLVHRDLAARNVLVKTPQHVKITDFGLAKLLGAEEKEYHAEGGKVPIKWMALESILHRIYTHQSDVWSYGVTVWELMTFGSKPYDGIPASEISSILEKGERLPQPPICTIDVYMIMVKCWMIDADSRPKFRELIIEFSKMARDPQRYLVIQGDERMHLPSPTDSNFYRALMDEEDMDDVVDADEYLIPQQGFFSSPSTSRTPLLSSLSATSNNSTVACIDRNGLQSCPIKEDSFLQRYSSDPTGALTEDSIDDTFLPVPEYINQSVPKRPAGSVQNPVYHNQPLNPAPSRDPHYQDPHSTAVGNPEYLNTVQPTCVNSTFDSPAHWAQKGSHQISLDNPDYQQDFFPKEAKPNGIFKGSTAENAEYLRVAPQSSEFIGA

SMILES	IC50 (HepG2)	IC50 (PC-3)	IC50 [1]	IC50 (MCF7)	IC50 (HCT-116)
COc1ccc(C(Nc2ccc([N+](=O)[O-])cc2)n2c(=O)ccc3cc(O)ccc32)cc1 (centres undefined)	29.7 µM	48 µM	1.35 µM	21.1 µM	36.6 µM
COc1ccc(C(Nc2ccccc2)n2c(=O)ccc3cc(O)ccc32)cc1 (centres undefined)	46.3 µM	79.7 µM	14.3 µM	35.1 µM	53.7 µM
COc1ccc(C(Nc2ccc(Cl)cc2)n2c(=O)ccc3cc(O)ccc32)cc1 (centres undefined)	21.5 µM	35.2 µM	1.13 µM	11.3 µM	20.4 µM
C#Cc1cccc(Nc2ncnc3cc(OCCOC)c(OCCOC)cc23)c1 [ERLOTINIB]	17.7 µM	26.9 µM		11.6 µM	20.5 µM
COc1ccc(NC(c2ccc(OC)cc2)n2c(=O)ccc3cc(O)ccc32)cc1 (centres undefined)	61.4 µM	85.3 µM	5.29 µM	49.2 µM	73.3 µM
COc1ccc(C(Nc2ccc(Br)cc2)n2c(=O)ccc3cc(O)ccc32)cc1 (centres undefined)	18.3 µM	32.9 µM	0.96 µM	10.8 µM	19.6 µM
